Earlier results, collected in patent publication US6340480B1, “Natural composition for the treatment of circulatory conditions” (priority 1998, dated 2002).

Test system: Activated Macrophages
Details: for killing certain tumor cells; literature study

Compound: CC(C)=CCC[C@](C)(O[C@@H]1O[C@H](CO)[C@@H](O)[C@H](O)[C@H]1O)[C@H]1CC[C@]2(C)[C@@H]1[C@H](O)C[C@@H]1[C@@]3(C)CC[C@H](O)C(C)(C)[C@@H]3[C@@H](O[C@@H]3O[C@H](CO)[C@@H](O)[C@H](O)[C@H]3O)C[C@]12C [RG1]
- production of NO: enhances the production of NO
